# Assay results as given in patent US9708314B2, “Heterocyclic amide compound” (NISSAN CHEMICAL INDUSTRIES, LTD., priority 2013, dated 2017).
# How the values were obtained:
# Type in all cases: in vivo
# [1] = tested on: Cyperus difformis; test: Test Example 3: herbicidal effect by application to foliage (Wagner pot, water depth 0.1-0.5 cm); conditions: Nineteenth Table; application to foliage; application herbicide amount 320 g/ha
# Summary of the method: (§1)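 Visual 0–5 rating of herbicidal ratio, taken 3 weeks after foliar spray of a diluted emulsion formulation at rates expressed as g/ha. Plants had been sown in alluvial soil under 0.1–0.5 cm water and grown 14 days at 25–30 °C under glass before application.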
# [2] = tested on: Echinochloa crus-galli var. crus-galli; test: as above; conditions: Nineteenth Table; application to foliage; application herbicide amount 320 g/ha
# Summary of the method: as §1
# [3] = tested on: Leptochloa chinensis; test: as above; conditions: Nineteenth Table; application to foliage; application herbicide amount 320 g/ha
# Summary of the method: as §1
# [4] = tested on: Abutilon theophrasti; test: Test Example 4: herbicidal effect by application to foliage (diluvial soil, plastic box); conditions: for M: herbicidal effect on Abutilon theophrasti: application to foliage, application herbicide amount 320 g/ha
# Summary of the method: (§2)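 Seeds sown in sterilized diluvial soil, covered ~1.5 cm, grown 14 days in greenhouse at 25° C. to 30° C. Emulsion formulation diluted in water to set rate (g/ha) and sprayed onto stems and leaves. Effect scored visually 3 weeks later on 0–5 scale (5 = ≥90% herbicidal ratio, 0 = ≤5%).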
# [5] = tested on: Alopecurus myosuroides; test: as above; conditions: for J: herbicidal effect on Alopecurus myosuroides: application to foliage, application herbicide amount 320 g/ha
# Summary of the method: as §2
# [6] = tested on: Apera spica-venti.; test: as above; conditions: for L: herbicidal effect on Apera spica-venti.: application to foliage, application herbicide amount 320 g/ha
# Summary of the method: as §2
# [7] = tested on: Avena fatua; test: as above; conditions: for I: herbicidal effect on Avena fatua: application to foliage, application herbicide amount 320 g/ha
# Summary of the method: as §2
# [8] = tested on: Chenopodium album; test: as above; conditions: for O: herbicidal effect on Chenopodium album: application to foliage, application herbicide amount 320 g/ha
# Summary of the method: as §2
# [9] = tested on: Digitaria ciliaris; test: as above; conditions: for F: herbicidal effect on Digitaria ciliaris: application to foliage, application herbicide amount 320 g/ha
# Summary of the method: as §2
# [10] = tested on: Echinochloa crus-galli var. crus-galli; test: as above; conditions: for H: herbicidal effect on Echinochloa crus-galli var. crus-galli: application to foliage, application herbicide amount 320 g/ha
# Summary of the method: as §2
# [11] = tested on: Galium spurium; test: as above; conditions: for Q: herbicidal effect on Galium spurium: application to foliage, application herbicide amount 320 g/ha
# Summary of the method: as §2
# [12] = tested on: Lolium multiflorum Lam.; test: as above; conditions: for K: herbicidal effect on Lolium multiflorum Lam.: application to foliage, application herbicide amount 320 g/ha
# Summary of the method: as §2
# [13] = tested on: Setaria viridis; test: as above; conditions: for G: herbicidal effect on Setaria viridis: application to foliage, application herbicide amount 320 g/ha
# Summary of the method: as §2
# [14] = tested on: Veronica persica; test: as above
# Summary of the method: as §2
# [15] = tested on: Beta vulgaris ssp. vulgaris; test: Test Example 4: effect on crop by application to foliage (diluvial soil, plastic box); conditions: for f: effect on crop, Beta vulgaris ssp. vulgaris: application to foliage, application herbicide amount 320 g/ha
# Summary of the method: as §2
# [16] = tested on: Brassica campestris L.; test: as above; conditions: for g: effect on crop, Brassica campestris L.: application to foliage, application herbicide amount 320 g/ha
# Summary of the method: as §2
# [17] = tested on: Glycine max; test: as above; conditions: for d: effect on crop, Glycine max: application to foliage, application herbicide amount 320 g/ha
# Summary of the method: as §2
# [18] = tested on: Triticum aestivum; test: as above; conditions: for e: effect on crop, Triticum aestivum: application to foliage, application herbicide amount 320 g/ha
# Summary of the method: as §2
# [19] = tested on: Zea mays; test: as above; conditions: for c: effect on crop, Zea mays: application to foliage, application herbicide amount 320 g/ha
# Summary of the method: as §2
# [20] = tested on: directly sowed Oryza sativa; test: as above; conditions: for b: effect on crop, directly sowed Oryza sativa: application to foliage, application herbicide amount 320 g/ha
# Summary of the method: as §2
# [21] = tested on: Amaranthus retroflexus; test: Test Example 4: herbicidal effect by application to foliage (diluvial soil, plastic box); conditions: application to foliage, application herbicide amount 320 g/ha
# Summary of the method: as §2
# [22] = tested on: Stellaria media; test: as above; conditions: application to foliage, application herbicide amount 320 g/ha
# Summary of the method: as §2
# [23] = Application herbicide amount 320 g/ha
# [24] = Application herbicide amount 320 g/ha, effect on crop
Compound,E (herbicidal effect grade) [1],H (herbicidal effect grade) [2],D (herbicidal effect grade) [3],M: herbicidal effect on Abutilon theophrasti [4],J: herbicidal effect on Alopecurus myosuroides [5],N: herbicidal effect on Amaranthus retroflexus [21],L: herbicidal effect on Apera spica-venti. [6],I: herbicidal effect on Avena fatua [7],O: herbicidal effect on Chenopodium album [8],F: herbicidal effect on Digitaria ciliaris [9],H: herbicidal effect on Echinochloa crus-galli var. crus-galli [10],Q: herbicidal effect on Galium spurium [11],K: herbicidal effect on Lolium multiflorum Lam. [12],G: herbicidal effect on Setaria viridis [13],"f: effect on crop, Beta vulgaris ssp. vulgaris [15]","g: effect on crop, Brassica campestris L. [16]","d: effect on crop, Glycine max [17]","e: effect on crop, Triticum aestivum [18]","c: effect on crop, Zea mays [19]","b: effect on crop, directly sowed Oryza sativa [20]",further results
Cc1nnc(NC(=O)c2ccc(C(F)(F)F)n3c(CC(=O)NC(C)C)nnc23)o1 [1-061],3 (Herbicidal ratio of 40% or more and less than 70%),5 (Herbicidal ratio of 90% or more (almost completely withered)),4 (Herbicidal ratio of 70% or more and less than 90%),–,–,–,–,–,–,–,–,–,–,–,–,–,–,–,–,–,"M [4, 23]: 5 (Herbicidal ratio of 90% or more (almost completely withered)); J [5, 23]: 1 (Herbicidal ratio of 5% or more and less than 20%); L [6, 23]: 1 (Herbicidal ratio of 5% or more and less than 20%); I [7, 23]: 3 (Herbicidal ratio of 40% or more and less than 70%); O [8, 23]: 5 (Herbicidal ratio of 90% or more (almost completely withered)); F [9, 23]: 3 (Herbicidal ratio of 40% or more and less than 70%); H [10, 23]: 4 (Herbicidal ratio of 70% or more and less than 90%); Q [11, 23]: 4 (Herbicidal ratio of 70% or more and less than 90%); K [12, 23]: 1 (Herbicidal ratio of 5% or more and less than 20%); G [13, 23]: 3 (Herbicidal ratio of 40% or more and less than 70%); R [14, 23]: 5 (Herbicidal ratio of 90% or more (almost completely withered)); f [15, 24]: 4 (Herbicidal ratio of 70% or more and less than 90%); g [16, 24]: 4 (Herbicidal ratio of 70% or more and less than 90%); c [17, 24]: 1 (Herbicidal ratio of 5% or more and less than 20%); e [18, 24]: 0 (Herbicidal ratio of 5% or less (almost no effect)); b [19, 24]: 1 (Herbicidal ratio of 5% or more and less than 20%); d [20, 24]: 4 (Herbicidal ratio of 70% or more and less than 90%)"
CN(CCC#N)c1nnc2c(C(=O)Nc3nnco3)ccc(C(F)(F)F)n12 [1-164],4 (Herbicidal ratio of 70% or more and less than 90%),5 (Herbicidal ratio of 90% or more (almost completely withered)),5 (Herbicidal ratio of 90% or more (almost completely withered)),4 (Herbicidal ratio of 70% or more and less than 90%),1 (Herbicidal ratio of 5% or more and less than 20%),5 (Herbicidal ratio of 90% or more (almost completely withered)),3 (Herbicidal ratio of 40% or more and less than 70%),3 (Herbicidal ratio of 40% or more and less than 70%),5 (Herbicidal ratio of 90% or more (almost completely withered)),5 (Herbicidal ratio of 90% or more (almost completely withered)),5 (Herbicidal ratio of 90% or more (almost completely withered)),4 (Herbicidal ratio of 70% or more and less than 90%),1 (Herbicidal ratio of 5% or more and less than 20%),5 (Herbicidal ratio of 90% or more (almost completely withered)),5 (Herbicidal ratio of 90% or more (almost completely withered)),4 (Herbicidal ratio of 70% or more and less than 90%),5 (Herbicidal ratio of 90% or more (almost completely withered)),3 (Herbicidal ratio of 40% or more and less than 70%),0 (Herbicidal ratio of 5% or less (almost no effect)),4 (Herbicidal ratio of 70% or more and less than 90%),–
C=CCN(C)c1nnc2c(C(=O)Nc3nnc(C)o3)ccc(C(F)(F)F)n12 [1-166],–,4 (Herbicidal ratio of 70% or more and less than 90%),3 (Herbicidal ratio of 40% or more and less than 70%),3 (Herbicidal ratio of 40% or more and less than 70%),0 (Herbicidal ratio of 5% or less (almost no effect)),4 (Herbicidal ratio of 70% or more and less than 90%),1 (Herbicidal ratio of 5% or more and less than 20%),1 (Herbicidal ratio of 5% or more and less than 20%),5 (Herbicidal ratio of 90% or more (almost completely withered)),5 (Herbicidal ratio of 90% or more (almost completely withered)),5 (Herbicidal ratio of 90% or more (almost completely withered)),1 (Herbicidal ratio of 5% or more and less than 20%),1 (Herbicidal ratio of 5% or more and less than 20%),4 (Herbicidal ratio of 70% or more and less than 90%),5 (Herbicidal ratio of 90% or more (almost completely withered)),4 (Herbicidal ratio of 70% or more and less than 90%),4 (Herbicidal ratio of 70% or more and less than 90%),0 (Herbicidal ratio of 5% or less (almost no effect)),0 (Herbicidal ratio of 5% or less (almost no effect)),0 (Herbicidal ratio of 5% or less (almost no effect)),P: herbicidal effect on Stellaria media [22]: 4 (Herbicidal ratio of 70% or more and less than 90%)
Cc1nnc(NC(=O)c2ccc(C(F)(F)F)n3c(CC#N)nnc23)o1 [1-168],–,4 (Herbicidal ratio of 70% or more and less than 90%),3 (Herbicidal ratio of 40% or more and less than 70%),3 (Herbicidal ratio of 40% or more and less than 70%),0 (Herbicidal ratio of 5% or less (almost no effect)),3 (Herbicidal ratio of 40% or more and less than 70%),0 (Herbicidal ratio of 5% or less (almost no effect)),1 (Herbicidal ratio of 5% or more and less than 20%),5 (Herbicidal ratio of 90% or more (almost completely withered)),5 (Herbicidal ratio of 90% or more (almost completely withered)),5 (Herbicidal ratio of 90% or more (almost completely withered)),1 (Herbicidal ratio of 5% or more and less than 20%),1 (Herbicidal ratio of 5% or more and less than 20%),4 (Herbicidal ratio of 70% or more and less than 90%),5 (Herbicidal ratio of 90% or more (almost completely withered)),3 (Herbicidal ratio of 40% or more and less than 70%),3 (Herbicidal ratio of 40% or more and less than 70%),1 (Herbicidal ratio of 5% or more and less than 20%),0 (Herbicidal ratio of 5% or less (almost no effect)),3 (Herbicidal ratio of 40% or more and less than 70%),"P: herbicidal effect on Stellaria media [22]: 5 (Herbicidal ratio of 90% or more (almost completely withered)); R: herbicidal effect on Veronica persica ([14]; application to foliage, application herbicide amount 320 g/ha): 5 (Herbicidal ratio of 90% or more (almost completely withered))"
